Data: ChEMBL document CHEMBL5346859, “Dual-target Janus kinase (JAK) inhibitors: Comprehensive review on the JAK-based strategies for treating solid or hematological malignancies and immune-related diseases” (Eur J Med Chem, 2022)
Blank lines part the entries; values can stand above or below the compound they belong to.

Key:
[1] = target: T1, Proto-oncogene tyrosine-protein kinase Src (Homo sapiens, UniProt P12931); assay: Inhibition of recombinant GST-tagged c-Src catalytic domain (unknown origin) using pEY (4:1) as substrate incubated for 120 mins in presence of 33P-labeled ATP
T1 sequence (P12931 2-536 limits assumed): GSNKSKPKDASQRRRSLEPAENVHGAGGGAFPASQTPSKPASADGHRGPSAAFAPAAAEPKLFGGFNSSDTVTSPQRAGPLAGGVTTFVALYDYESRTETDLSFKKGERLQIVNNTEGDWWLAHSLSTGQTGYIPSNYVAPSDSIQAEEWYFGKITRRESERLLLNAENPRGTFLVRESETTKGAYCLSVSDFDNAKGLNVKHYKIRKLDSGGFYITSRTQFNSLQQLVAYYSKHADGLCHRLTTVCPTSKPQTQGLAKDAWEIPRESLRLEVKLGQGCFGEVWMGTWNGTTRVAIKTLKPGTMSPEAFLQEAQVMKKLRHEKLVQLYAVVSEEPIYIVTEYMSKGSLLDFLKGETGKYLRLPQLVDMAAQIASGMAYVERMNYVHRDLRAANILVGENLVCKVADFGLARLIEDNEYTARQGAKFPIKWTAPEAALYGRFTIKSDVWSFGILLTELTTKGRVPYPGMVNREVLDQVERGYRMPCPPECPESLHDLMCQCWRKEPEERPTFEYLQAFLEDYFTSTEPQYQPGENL

A2058 = assay: Antitumor activity against human A2058 cells xenografted in NSG mouse assessed as tumor growth inhibition at 25 mg/kg, po administered twice daily for 18 days relative to control; assay type: functional; conditions: A2058, 432 h, time 18 day, read-out: TGI
[2] = target: T2, Non-receptor tyrosine-protein kinase TYK2 (Homo sapiens, UniProt P29597); assay: Inhibition of recombinant GST-tagged TYK2 catalytic domain (unknown origin) using pEY (4:1) as substrate incubated for 120 mins in presence of 33P-labeled ATP
T2 sequence (P29597 whole entry, the tested form may be a part): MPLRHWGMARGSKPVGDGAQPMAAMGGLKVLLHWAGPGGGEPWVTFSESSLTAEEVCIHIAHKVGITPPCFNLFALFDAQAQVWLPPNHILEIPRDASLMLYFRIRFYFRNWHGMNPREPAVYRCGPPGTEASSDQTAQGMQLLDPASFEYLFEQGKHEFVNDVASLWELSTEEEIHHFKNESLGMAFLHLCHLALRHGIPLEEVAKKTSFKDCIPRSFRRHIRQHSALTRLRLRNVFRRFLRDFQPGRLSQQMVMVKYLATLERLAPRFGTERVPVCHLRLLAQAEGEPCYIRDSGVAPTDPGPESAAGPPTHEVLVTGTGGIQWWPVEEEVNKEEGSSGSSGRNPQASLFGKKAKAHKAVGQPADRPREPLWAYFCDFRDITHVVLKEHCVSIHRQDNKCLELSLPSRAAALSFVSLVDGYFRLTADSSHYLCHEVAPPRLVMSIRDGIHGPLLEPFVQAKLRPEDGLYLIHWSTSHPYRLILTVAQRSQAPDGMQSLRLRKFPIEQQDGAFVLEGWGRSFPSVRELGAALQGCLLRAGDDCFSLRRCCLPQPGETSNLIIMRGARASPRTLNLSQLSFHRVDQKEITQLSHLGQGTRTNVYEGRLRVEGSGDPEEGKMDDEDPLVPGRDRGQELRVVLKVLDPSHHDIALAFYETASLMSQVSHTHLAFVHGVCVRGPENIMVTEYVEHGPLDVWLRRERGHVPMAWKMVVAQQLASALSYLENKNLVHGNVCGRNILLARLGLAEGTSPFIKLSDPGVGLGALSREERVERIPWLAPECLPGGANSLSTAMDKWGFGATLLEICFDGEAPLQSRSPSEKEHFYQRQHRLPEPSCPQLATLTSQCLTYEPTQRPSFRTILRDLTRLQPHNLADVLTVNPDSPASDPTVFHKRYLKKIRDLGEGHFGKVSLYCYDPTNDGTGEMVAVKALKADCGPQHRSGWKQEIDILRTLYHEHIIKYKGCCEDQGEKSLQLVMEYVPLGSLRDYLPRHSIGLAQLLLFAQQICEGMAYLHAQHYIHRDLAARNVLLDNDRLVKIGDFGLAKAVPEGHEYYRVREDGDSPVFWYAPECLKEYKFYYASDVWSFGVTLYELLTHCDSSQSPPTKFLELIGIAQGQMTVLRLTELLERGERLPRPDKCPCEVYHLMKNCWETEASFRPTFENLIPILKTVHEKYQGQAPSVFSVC

[3] = target: T3, Tyrosine-protein kinase JAK1 (Homo sapiens, UniProt P23458); assay: Inhibition of recombinant GST-tagged JAK1 catalytic domain (unknown origin) using pEY (4:1) as substrate incubated for 120 mins in presence of 33P-labeled ATP
T3 sequence (P23458 whole entry, the tested form may be a part): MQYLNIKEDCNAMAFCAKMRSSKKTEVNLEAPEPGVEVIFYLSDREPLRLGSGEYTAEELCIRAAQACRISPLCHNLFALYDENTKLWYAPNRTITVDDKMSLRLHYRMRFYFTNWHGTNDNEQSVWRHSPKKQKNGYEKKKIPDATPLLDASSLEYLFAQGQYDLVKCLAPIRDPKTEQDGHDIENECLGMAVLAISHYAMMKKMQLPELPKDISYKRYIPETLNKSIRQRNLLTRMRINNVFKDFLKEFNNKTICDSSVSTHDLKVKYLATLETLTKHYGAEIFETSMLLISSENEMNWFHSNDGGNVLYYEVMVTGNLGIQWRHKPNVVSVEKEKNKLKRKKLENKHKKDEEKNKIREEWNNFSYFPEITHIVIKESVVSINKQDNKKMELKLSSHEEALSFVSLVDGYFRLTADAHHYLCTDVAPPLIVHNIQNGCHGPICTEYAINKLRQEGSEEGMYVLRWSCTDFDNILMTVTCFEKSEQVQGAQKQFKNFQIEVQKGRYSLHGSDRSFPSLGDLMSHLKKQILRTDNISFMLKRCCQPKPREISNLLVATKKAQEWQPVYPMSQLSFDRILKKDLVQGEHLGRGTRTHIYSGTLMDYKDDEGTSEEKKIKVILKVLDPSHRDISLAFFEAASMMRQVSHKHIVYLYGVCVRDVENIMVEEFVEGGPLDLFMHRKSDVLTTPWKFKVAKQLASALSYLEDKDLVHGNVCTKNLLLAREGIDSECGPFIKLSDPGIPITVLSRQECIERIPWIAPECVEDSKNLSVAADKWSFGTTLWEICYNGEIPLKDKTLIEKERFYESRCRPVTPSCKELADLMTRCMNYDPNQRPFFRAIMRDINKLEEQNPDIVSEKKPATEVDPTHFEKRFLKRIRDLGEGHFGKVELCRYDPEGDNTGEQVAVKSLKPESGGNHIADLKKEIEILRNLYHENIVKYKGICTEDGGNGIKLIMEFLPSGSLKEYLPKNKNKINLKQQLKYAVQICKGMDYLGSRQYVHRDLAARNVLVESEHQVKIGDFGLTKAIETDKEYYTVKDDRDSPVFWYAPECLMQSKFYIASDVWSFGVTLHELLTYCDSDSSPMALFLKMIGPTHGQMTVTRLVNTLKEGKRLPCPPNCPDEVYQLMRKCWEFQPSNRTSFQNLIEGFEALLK

[4] = target: T4, Tyrosine-protein kinase JAK2 (Homo sapiens, UniProt O60674); assay: Inhibition of recombinant GST-tagged JAK2 catalytic domain (unknown origin) using pEY (4:1) as substrate incubated for 120 mins in presence of 33P-labeled ATP
T4 sequence (O60674 whole entry, the tested form may be a part): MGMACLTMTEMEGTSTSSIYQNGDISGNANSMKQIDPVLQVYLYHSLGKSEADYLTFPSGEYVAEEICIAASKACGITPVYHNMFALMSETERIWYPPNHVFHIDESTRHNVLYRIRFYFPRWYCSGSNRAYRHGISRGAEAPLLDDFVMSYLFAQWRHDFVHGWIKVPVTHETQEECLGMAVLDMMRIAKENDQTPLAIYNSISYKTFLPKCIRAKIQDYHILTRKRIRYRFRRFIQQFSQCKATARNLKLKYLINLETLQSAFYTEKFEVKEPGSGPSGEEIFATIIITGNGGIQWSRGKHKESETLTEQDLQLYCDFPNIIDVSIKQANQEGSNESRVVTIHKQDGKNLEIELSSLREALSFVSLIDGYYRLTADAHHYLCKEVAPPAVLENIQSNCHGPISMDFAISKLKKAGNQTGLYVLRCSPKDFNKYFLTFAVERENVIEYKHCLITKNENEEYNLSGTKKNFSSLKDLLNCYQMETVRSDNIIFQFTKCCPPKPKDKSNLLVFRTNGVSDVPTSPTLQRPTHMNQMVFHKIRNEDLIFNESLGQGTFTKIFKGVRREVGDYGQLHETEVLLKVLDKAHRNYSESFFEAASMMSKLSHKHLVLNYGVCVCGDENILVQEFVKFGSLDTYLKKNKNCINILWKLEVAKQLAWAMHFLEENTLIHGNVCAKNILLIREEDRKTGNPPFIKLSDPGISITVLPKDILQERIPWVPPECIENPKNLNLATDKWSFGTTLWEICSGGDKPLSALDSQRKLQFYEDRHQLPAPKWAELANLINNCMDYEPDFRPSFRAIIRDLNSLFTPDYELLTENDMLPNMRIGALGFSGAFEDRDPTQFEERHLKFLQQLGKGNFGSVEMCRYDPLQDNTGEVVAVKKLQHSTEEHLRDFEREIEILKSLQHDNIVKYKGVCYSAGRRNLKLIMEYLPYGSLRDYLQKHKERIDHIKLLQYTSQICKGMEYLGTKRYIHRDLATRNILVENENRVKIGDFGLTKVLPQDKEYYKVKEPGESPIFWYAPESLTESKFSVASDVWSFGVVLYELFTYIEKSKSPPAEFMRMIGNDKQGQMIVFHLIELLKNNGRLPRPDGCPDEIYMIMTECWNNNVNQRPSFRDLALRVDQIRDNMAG

[5] = target: T3, Tyrosine-protein kinase JAK1; assay: Inhibition of recombinant JAK1 (unknown origin) incubated for 120 mins in presence of [33P]-ATP by hotspot assay
[6] = target: T1, Proto-oncogene tyrosine-protein kinase Src; assay: Inhibition of recombinant c-Src (unknown origin) incubated for 120 mins in presence of [33P]-ATP by hotspot assay
[7] = target: T2, Non-receptor tyrosine-protein kinase TYK2; assay: Inhibition of recombinant TYK2 (unknown origin) incubated for 120 mins in presence of [33P]-ATP by hotspot assay
[8] = target: T4, Tyrosine-protein kinase JAK2; assay: Inhibition of recombinant JAK2 (unknown origin) incubated for 120 mins in presence of [33P]-ATP by hotspot assay
MIA PaCa-2 = assay: Antiproliferative activity against human MIA PaCa-2 cells assessed as inhibition of cell growth incubated for 48 hrs by MTS assay; assay type: functional, cell-based; conditions: MIA PaCa-2, 48 h
[9] = target: T4, Tyrosine-protein kinase JAK2; assay: Inhibition of JAK2 (unknown origin) using FAM-labeled peptide as substrate preincubated with compound for 10 mins followed by substrate addition and measured after 60 mins in presence of ATP
[10] = target: T5, Receptor-type tyrosine-protein kinase FLT3 (Homo sapiens, UniProt P36888); assay: Inhibition of FLT3 (unknown origin) using FAM-labeled peptide as substrate preincubated with compound for 10 mins followed by substrate addition and measured after 60 mins in presence of ATP
T5 sequence (P36888 whole entry): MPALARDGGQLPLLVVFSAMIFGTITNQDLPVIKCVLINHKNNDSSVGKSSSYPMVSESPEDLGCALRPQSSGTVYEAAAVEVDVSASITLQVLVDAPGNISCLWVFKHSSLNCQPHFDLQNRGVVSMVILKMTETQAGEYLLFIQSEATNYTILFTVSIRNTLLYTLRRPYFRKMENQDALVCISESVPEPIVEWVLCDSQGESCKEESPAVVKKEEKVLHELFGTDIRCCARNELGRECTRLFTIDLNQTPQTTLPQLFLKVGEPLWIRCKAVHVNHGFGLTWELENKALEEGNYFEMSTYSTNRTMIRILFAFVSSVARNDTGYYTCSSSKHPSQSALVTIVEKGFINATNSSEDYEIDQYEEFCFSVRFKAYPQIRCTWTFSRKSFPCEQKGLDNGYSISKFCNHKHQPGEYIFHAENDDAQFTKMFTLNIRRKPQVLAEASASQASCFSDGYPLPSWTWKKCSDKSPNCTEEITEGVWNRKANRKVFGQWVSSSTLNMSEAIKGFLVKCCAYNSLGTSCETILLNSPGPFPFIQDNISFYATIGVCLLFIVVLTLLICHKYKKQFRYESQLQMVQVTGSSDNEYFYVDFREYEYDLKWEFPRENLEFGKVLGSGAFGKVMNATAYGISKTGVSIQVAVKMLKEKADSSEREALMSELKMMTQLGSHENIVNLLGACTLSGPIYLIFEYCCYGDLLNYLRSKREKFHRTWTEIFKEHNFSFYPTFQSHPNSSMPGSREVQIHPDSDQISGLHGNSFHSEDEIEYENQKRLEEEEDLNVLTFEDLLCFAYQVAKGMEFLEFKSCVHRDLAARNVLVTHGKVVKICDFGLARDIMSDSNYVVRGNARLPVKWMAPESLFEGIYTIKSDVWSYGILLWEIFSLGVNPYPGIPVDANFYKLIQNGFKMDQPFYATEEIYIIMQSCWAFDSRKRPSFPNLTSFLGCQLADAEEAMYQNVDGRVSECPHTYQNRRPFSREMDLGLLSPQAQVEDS

HEL = assay: Antiproliferative activity against HEL cells assessed as inhibition of cell growth incubated for 48 hrs by CCK-8 assay; assay type: functional, cell-based; conditions: Homo sapiens
[11] = Metabolic stability in rat liver microsomes assessed as half life by LC-MS/MS analysis; assay type: ADME, Microsome
MOLM-13 = assay: Antiproliferative activity against human MOLM-13 cells assessed as inhibition of cell growth incubated for 48 hrs by CCK-8 assay; assay type: functional, cell-based; conditions: MOLM-13, 48 h
[12] = target: T4, Tyrosine-protein kinase JAK2
[13] = target: T5, Receptor-type tyrosine-protein kinase FLT3

IC50 [1]: 0.2 nM | IC50 [2]: 50 nM | IC50 [3]: 600 nM | IC50 [4]: 28 nM
Structure (SMILES): O=C1Nc2cc(Br)ccc2/C1=C1/Nc2ccccc2/C1=N\OCCN1CCNCC1
inhibition in vivo at 25 mg/kg (A2058): 50%

IC50 [5]: 10.4 nM | IC50 [6]: 10.4 nM | IC50 [7]: 0.7 nM | IC50 [8]: 74.1 nM | IC50 (MIA PaCa-2): 680 nM
Structure (SMILES): COc1ccc2c(c1)/C(=C1/Nc3ccccc3/C1=N\OCC(O)CO)C(=O)N2 (stereo not given)

IC50 [4]: > 10000 nM
Structure (SMILES): O=C1Nc2c(Br)cccc2/C1=C1/Nc2ccccc2/C1=N\OCCN1CCNCC1

IC50 [9]: 2.9 nM | IC50 [10]: 1.4 nM
Structure (SMILES): CC(=O)c1ccc(NC(=O)N2CCN(c3ccnc(Nc4ccc(N5CCOCC5)cc4)n3)CC2)cc1

IC50 [9]: 1.8 nM | half-life [11]: 31 min | IC50 [10]: 0.68 nM | IC50 (MOLM-13): 19 nM
Structure (SMILES): CC(=O)c1ccc(NC(=O)N2CCN(c3nc(Nc4ccc(N5CCOCC5)cc4)ncc3Cl)CC2)cc1
IC50 (HEL): 500 nM

IC50 [12]: 70 nM | IC50 [13]: 190 nM
Structure (SMILES): COc1ccc2cc1COC/C=C/COCc1cccc(c1)-c1ccnc(n1)N2
